≈ marks a conversion by molar mass, not a printed value. Where “and” joins values, the source holds several entries; their conditions need not be identical. Equal entries are not always repeated.
Experiments:
B. cereus = assay: Antimicrobial serial tube dilution, MIC and MBC; assay type: cell-based, Bacillus cereus MTCC 1305; conditions: Bacillus cereus; for MIC: 24 h, read-out: B. cereus MIC; for MBC: read-out: B. cereus MBC
Protocol: (§1) The synthesized diazenyl chalcones (C18 to C27) and controls (dyes A and E, and chalcone) were assessed for their antimicrobial activity by estimation of MIC and MBC/MFC values. […] The stock solutions of the test compounds and standard drugs having a concentration of 1000 µg ml^−1 were prepared by dissolving the used compounds in DMSO. The nutrient broth/Sabouraud dextrose broth was used for the serial dilution of the test compounds and referenced drugs for bacterial and fungal cultures, respectively. […] The size of the final inoculum in each test tube was taken as 5 × 10^5 CFU ml^−1. The incubation of the test and standard compounds of varying concentrations was done for 24 h at 37 ± 2 °C (bacterial culture) and for 48 h at 37 ± 2 °C (C. albicans) and for 7 d at 25 ± 2 °C (A. fumigatus). The diazenyl chalcones (C18–C27), were further evaluated for their bactericidal/fungicidal activity by estimation of MBC/MFC values. […] For proper mixing of culture media, the plates were shaken gently followed by incubation at the predefined temperature and time as stated earlier, followed by the visual inspection of the plates for signs of microbial growth.

S. typhi = assay: Antimicrobial serial tube dilution, MIC and MBC; assay type: cell-based, Salmonella typhi MTCC 3216; conditions: Salmonella enterica, TYPHI; for MIC: 24 h, read-out: S. typhi MIC; for MBC: read-out: S. typhi MBC
Protocol: as §1

E. coli = assay: Antimicrobial serial tube dilution, MIC and MBC; assay type: cell-based, Escherichia coli MTCC 1652; conditions: for E. coli MIC: 24 h at 37 ± 2 °C; for MIC / MBC: Escherichia coli; for MIC: 24 h, read-out: E. coli MIC, 24 h at 37 ± 2 °C; for MBC: read-out: E. coli MBC
Protocol: as §1

S. aureus = assay: Antimicrobial serial tube dilution, MIC and MBC; assay type: cell-based, Staphylococcus aureus MTCC 2901; conditions: Staphylococcus aureus; for MIC: 24 h, read-out: S. aureus MIC; for MBC: read-out: S. aureus MBC
Protocol: as §1

B. subtilis = assay: Antimicrobial serial tube dilution, MIC and MBC; assay type: cell-based, Bacillus subtilis MTCC 2063; conditions: Bacillus subtilis; for MIC: 24 h, read-out: B. subtilis MIC; for MBC: read-out: B. subtilis MBC
Protocol: as §1

C. albicans = assay: Antimicrobial serial tube dilution, MIC and MFC; assay type: cell-based, Candida albicans MTCC 227; conditions: Candida albicans; for MIC: 48 h, read-out: C. albicans MIC; for MFC: read-out: C. albicans MFC
Protocol: as §1

A. fumigatus = assay: Antimicrobial serial tube dilution, MIC and MFC; assay type: cell-based, Aspergillus fumigatus MTCC 2584; conditions: Aspergillus fumigatus; for MIC: 168 h, read-out: A. fumigatus MIC; for MFC: read-out: A. fumigatus MFC
Protocol: as §1

[1] = DPPH scavenging antioxidant assay
Protocol: The derivatives (C18–C27) were assessed for their antioxidant potential in the presence of the stable free radical DPPH using ascorbic acid as the standard compound [36, 37]. […] The total volume of 200 µl was used in each well for each concentration of the test and standard drug containing 0.004 µg DPPH. The assay was performed in triplicate at all concentrations of each sample and standard compound. DPPH solutions in methanol at the same concentration without test drugs were used as the control. Each concentration of the sample and standard has a different blank. To minimize evaporation, the plate was covered with the lid and wrapped in aluminium foil and kept in the dark place in order to protect the DPPH radical from degradation by light and left for 30 min. After 30 min of incubation, the plate was kept in ELISA reader to measure the absorbance values at 517 nm. The experiment was performed in triplicate. The antioxidant activity of each sample was then calculated as per cent inhibition of DPPH according to the following equation: %decolourationofDPPH=ControlAbs-SampleAbs×100/ControlAbs

[2] = system: A549 human lung cancer cell line; assay: MTT cytotoxicity assay, A549; assay type: cell-based; conditions: Homo sapiens, A549; MTT, 48 h
Protocol: (§2) The cell lines employed in the investigation were purchased from the National Centre for Cell Sciences (NCCS), Pune, India. The cell lines were cultured in DMEM fortified with 10% FBS, L-glutamine, sodium bicarbonate, and solution of antibiotics (streptomycin 100 μg ml^−1 + penicillin-100 U ml^−1). The culture of cell lines was stored under 5% CO2 incubation at 37 °C.
(§3) The compounds showing maximum activity (antimicrobial and antioxidant potential) were screened for cytotoxicity against A549 and HEK cell lines using MTT assay. Initially, 96-well microculture plate was seeded with 1 × 10^4 cells in 100 µl/well DMEM/MEM, supplemented with 10% FBS followed by incubation at a temperature of 37 °C for a period of 24 h under 5% CO2 atmosphere. After that, the test compounds and camptothecin were added to the cells to achieve a concentration of 10, 25, 50 and 100 µg. MTT reagent (10 µl) of concentration of 5 mg ml^−1 added to all the wells after the duration of 48 h. The plate was incubated further for 4 h followed by careful removal of supernatant from each well. To dissolve the formazan crystals, 100 µl of DMSO was added, and the ELISA reader was used to check the absorbance at 570 nm wavelength. In order to calculate the IC50 concentration, the following equation, i.e. A = Bx + C, was used. In this case, A = 50, while the values B and C values were obtained from the survival curve plot. This study was carried out in duplicate.

[3] = system: HEK human embryonic kidney cells; assay: MTT cytotoxicity assay, HEK; assay type: cell-based; conditions: 48 h
Protocol: as §2, §3

Row | SMILES | MIC (B. cereus) [µg/mL] | MBC (B. cereus) [µg/mL] | MIC (S. typhi) [µg/mL] | MBC (S. typhi) [µg/mL] | MIC (E. coli) [µg/mL] | MBC (E. coli) [µg/mL] | MIC (S. aureus) [µg/mL] | MBC (S. aureus) [µg/mL] | MIC (B. subtilis) [µg/mL] | MBC (B. subtilis) [µg/mL] | MIC (C. albicans) [µg/mL] | MFC (C. albicans) [µg/mL] | MIC (A. fumigatus) [µg/mL] | MFC (A. fumigatus) [µg/mL] | % inhibition of DPPH ([1]; 1.56 µg ml^−1) [%] | % inhibition of DPPH ([1]; 3.12 µg ml^−1) [%] | % inhibition of DPPH ([1]; 6.25 µg ml^−1) [%] | % inhibition of DPPH ([1]; 12.5 µg ml^−1) [%] | % inhibition of DPPH ([1]; 25 µg ml^−1) [%] | % inhibition of DPPH ([1]; 50 µg ml^−1) [%] | also measured
1 | COc1ccccc1/C=C\C(=O)c1ccc(N=Nc2c(O)cccc2O)cc1 [Compound C-27, (2Z)-1-(4-((2,6-Dihydroxyphenyl)diazenyl)phenyl)-3-(2-methoxyphenyl)prop-2-en-1-one] | 125 (≈ 334 µM) | 125 (≈ 334 µM) | 62.5 (≈ 167 µM) | 62.5 (≈ 167 µM) | 7.81 to 15.6 (≈ 20.9 to 41.7 µM) | 15.6 (≈ 41.7 µM) | 62.5 (≈ 167 µM) | 62.5 (≈ 167 µM) | 15.6 (≈ 41.7 µM) | 31.2 (≈ 83.5 µM) | 62.5 (≈ 167 µM) | 62.5 (≈ 167 µM) | 125 (≈ 334 µM) | 125 (≈ 334 µM) | 26.13 | 34.18 | 54.67 | 82.21 | 93.45 | 95.71 | E. coli MIC (E. coli): 7.81 µg/mL; IC50 DPPH [1]: 7.112 µg/mL and 7.12 µg/mL; % inhibition of DPPH ([1]; 100 µg ml^−1): 96.62%; log IC50 DPPH ([1]; Fig. 1): 0.8520; IC50 [2]: 124 ± 2.56 µg/mL (≈ 330 µM); IC50 [3]: 330.6 ± 2.9 µg/mL (≈ 883 µM); melting point: 320 to 322 °C
2 | O=C(/C=C\c1cc(Br)ccc1O)c1ccc(N=Nc2c(O)cccc2O)cc1 [Compound C-21, (2Z)-3-(5-Bromo-2-hydroxyphenyl)-1-(4-((2,6-dihydroxyphenyl)diazenyl)phenyl)prop-2-en-1-one] | 62.5 (≈ 142 µM) | 62.5 (≈ 142 µM) | 31.2 (≈ 71.1 µM) | 125 (≈ 285 µM) | 7.81 to 15.6 (≈ 17.8 to 35.6 µM) | 31.2 (≈ 71.1 µM) | 125 (≈ 285 µM) | 125 (≈ 285 µM) | 31.2 (≈ 71.1 µM) | 62.5 (≈ 142 µM) | 62.5 (≈ 142 µM) | 125 (≈ 285 µM) | 125 (≈ 285 µM) | 125 (≈ 285 µM) | 8.71 | 12.99 | 20.98 | 25.71 | 30.75 | 35.78 | E. coli MIC (E. coli): 15.62 µg/mL; % inhibition of DPPH ([1]; 100 µg ml^−1): 39.56%; melting point: 155 to 157 °C
3 | O=C(/C=C\c1ccc(Cl)cc1Cl)c1cccc(N=Nc2cccc(Cl)c2Cl)c1O [Compound C-19, (2Z)-3-(2,4-Dichlorophenyl)-1-(3-((2,3-dichlorophenyl)diazenyl)-2-hydroxyphenyl)prop-2-en-1-one] | 500 (≈ 1070 µM) | 500 (≈ 1070 µM) | 125 (≈ 268 µM) | 125 (≈ 268 µM) | 500 (≈ 1070 µM) | 500 (≈ 1070 µM) | 125 (≈ 268 µM) | 125 (≈ 268 µM) | 15.6 (≈ 33.5 µM) | 62.5 (≈ 134 µM) | 125 (≈ 268 µM) | 125 (≈ 268 µM) | 125 (≈ 268 µM) | 250 (≈ 536 µM) | 6.64 | 7.71 | 9.39 | 10.87 | 12.99 | 15.22 | IC50 DPPH [1]: > 100 µg/mL; % inhibition of DPPH ([1]; 100 µg ml^−1): 24.49%; IC50 [2]: 140.2 ± 1.11 µg/mL (≈ 301 µM); IC50 [3]: 221 ± 3.23 µg/mL (≈ 474 µM); melting point: 112 to 114 °C

Source: PMC6661766, “Antimicrobial, antioxidant and cytotoxic evaluation of diazenyl chalcones along with insights to mechanism of interaction by molecular docking studies” (BMC Chemistry, 2019)
